27 compounds from patent US20240158438A1, “POLYPEPTIDE COMPOUND AND APPLICATION THEREOF” (CHENGDU SINTANOVO BIOTECHNOLOGY CO., LTD., priority 2021, published 2024) can be followed below.

What is called IC50 is the midpoint of a concentration-inhibition curve.

The target of the test is GHSR-1a (Homo sapiens (Human), UniProt Q92847). Put plainly: Agonistic activity for GHSR-1a, FLIPR calcium assay. The test is classed as cell-based. The note with it: agonist activity assay, Flp In-CHO-GHSR Stable Pool cells, FLIPR calcium 6 kit; read-out: The activity (IC50) of polypeptide compounds for GHSR-1a. From the text:
The use of recombinant expression of GHSR provides several advantages; for example, the receptor can be expressed in a determined cell system, so that it is easier to distinguish between the reactions of the compounds with GHSR and the reactions with other receptors. For example, cell lines such as HEK293, COS7 and CHO that […] can be used to express GHSR, and the same cell lines without expression vectors are used as controls.
The activity of GHSR-1a can be measured using different techniques, for example, by detecting the change in the intracellular conformation of GHSR, the change in G-protein coupling activity, and/or the change in intracellular messengers. Techniques such as measuring intracellular Ca^2+ are preferably used to measure the activity of GHSR-1a. Examples of techniques known in the art that can be used to measure Ca^2+ include the use of FLIPR® calcium ion assay kits, among others. The FLIPR® calcium ion assay kits use a calcium ion sensitive indicator and a masking dye to ensure that a researcher carries out high-sensitivity fluorescent screening for G protein-coupled receptors, ion channels and other calcium ion sensitive targets. This experiment used FLIPR calcium 6 assay kits and FLIPR calcium 6-QF assay kits.
• a) Cell line: Flp In-CHO-GHSR Stable Pool; • b) Complete medium: F12K+10% fetal bovine serum+1×penicillin-streptomycin (PS)+600 μg/mL hygromycin B; • c) Cell seeding medium: F12K+10% fetal bovine serum. • d) Assay buffer: 1× HBSS+20 mM HEPES. • e) […] component A: Assay buffer and component A were left at room temperature (RT), 10 mL of buffer was added to component A, and the mixture was vortexed for 1-2 min and stored at −20° C.
• a) Compound stock solutions: the powders from in-house synthesis were made into 10 mM stock solutions in DMSO according to the standard protocol. • b) Compound storage: all compounds in DMSO were stored in room temperature desiccators for short-term storage (at most 4 months). The remaining compounds were left at −20 ° C. for long-term storage.
• a) Flp In-CHO-GHSR Stable Pool cells were cultured in complete medium. • b) The cells were placed in […] cell seeding medium in a 384-well cell culture plate (Corning, 3764) at 7k cells/well and cultured overnight at 37° C. with 5% CO2. • c) 20× component A was thawed at room temperature, diluted with assay buffer to 2×, and left at RT. • d) The Petri dish was taken out of the incubator and equilibrated at room temperature for 10 min. The medium was changed to […]. After the final wash, 20 μL of buffer was kept in each well, 20 μL of 2× component A was then added to each well, and the plate was incubated at 37° C. for 3-5 s. • e) 10 μL of 5× compound was added to the 384-well cell culture plate, and data collection was immediately performed using FLIPR Tetra.
• 1) Z′ factor=1−3×(SDMax+SDMin)/(MeanMax−MeanMin); • 2) CVMax=(SDMax/MeanMax)×100%; • 3) CVMin=(SDMin/MeanMin)×100%; • 4) S/B=Singal/Background; • 5) Calculation formula for IC50: • Y=Bottom+(Top−Bottom)/(1+10^((LogIC50−X)×HillSlope)) • X: log value of compound concentration; Y: Activation % or Inhibition %

Starred links: 1 amine or outer side, 2 acyl side, 3 side chain; linkers in the order of their positions; H or OH if unused. Non-standard residues stand in square brackets, D forms with d. Residues, ends and D or L forms follow the SMILES beside them. *: point of attachment. Pyrrolidine3carbonyl(3S) = O=C([C@H]1CCNC1)*; X6 = O=C(C1[C@H]2CC[C@H](C2)N1[*:1])[*:2]; X5 = NC12CC3CC(C1)CC(CC(=O)*)(C3)C2; dBta = N[C@H](Cc1csc2ccccc12)C(=O)O; dCit = NC(=O)NCCC[C@@H](N)C(=O)O; X7 = O=C([C@@]12CNC[C@@H]1C2)*; Tle = CC(C)(C)[C@H](N)C(=O)O; dNle = CCCC[C@@H](N)C(=O)O; dAbu = CC[C@@H](N)C(=O)O; Api = NC1(C(=O)O)CCNCC1; X4 = O=C([C@H]1CNCCO1)*; dAze = O=C(O)[C@H]1CCN1; X3 = NCC1(C(=O)*)CCC1

Sequence of GHSR-1a (Q92847 whole entry): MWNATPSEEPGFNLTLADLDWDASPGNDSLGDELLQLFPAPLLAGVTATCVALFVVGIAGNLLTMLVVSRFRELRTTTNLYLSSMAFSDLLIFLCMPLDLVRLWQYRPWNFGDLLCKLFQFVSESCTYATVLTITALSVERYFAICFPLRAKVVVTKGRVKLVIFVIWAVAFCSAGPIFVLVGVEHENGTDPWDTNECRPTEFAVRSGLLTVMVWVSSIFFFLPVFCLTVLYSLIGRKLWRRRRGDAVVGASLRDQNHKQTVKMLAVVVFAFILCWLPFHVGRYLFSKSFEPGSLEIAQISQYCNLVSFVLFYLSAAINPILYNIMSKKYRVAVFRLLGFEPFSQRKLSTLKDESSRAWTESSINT

For the compound `N=C(N)NCCC[C@@H](NC(=O)[C@H](Cc1ccccc1)NC(=O)[C@@H](Cc1c[nH]c2ccccc12)NC(=O)[C@@H](Cc1csc2ccccc12)NC(=O)C1(CN)CCC1)C(N)=O` [Compound 62] (X3-[dBta][dW]F[dR]-NH2), the IC50 worked out at 30.3 nM.
Consider `CCCC[C@@H](NC(=O)C1(NC(=O)[C@H](Cc2ccccc2)NC(=O)[C@@H](Cc2c[nH]c3ccccc23)NC(=O)[C@@H](Cc2csc3ccccc23)NC(=O)[C@H](N)CC)CCNCC1)C(=O)N[C@H](C)C(N)=O` [Compound 84] (H-[dAbu][dBta][dW]F[Api][dNle][dA]-NH2), for which the half-inhibitory concentration (IC50) was 6.7 nM.
To `CCCC[C@@H](NC(=O)[C@@H](CCCCN)NC(=O)[C@H](Cc1ccccc1)NC(=O)[C@@H](Cc1c[nH]c2ccccc12)NC(=O)[C@@H](Cc1csc2ccccc12)NC(=O)[C@H](N)CC)C(=O)N[C@H](C)C(N)=O` [Compound 82] (H-[dAbu][dBta][dW]F[dK][dNle][dA]-NH2) belongs 9 nM; to `CCCC[C@@H](NC(=O)[C@@H](CCCCN)NC(=O)[C@H](Cc1ccccc1)NC(=O)[C@@H](Cc1c[nH]c2ccccc12)NC(=O)[C@@H](Cc1csc2ccccc12)NC(=O)[C@H](N)CC)C(N)=O` [Compound 81] (H-[dAbu][dBta][dW]F[dK][dNle]-NH2), 7.2 nM.
To `N=C(N)NCCC[C@@H](NC(=O)[C@H](Cc1ccccc1)NC(=O)[C@@H](Cc1c[nH]c2ccccc12)NC(=O)[C@@H](Cc1csc2ccccc12)NC(=O)CC12CC3CC(CC(N)(C3)C1)C2)C(N)=O` [Compound 68] (X5-[dBta][dW]F[dR]-NH2) belongs 330 nM; to `NCCCC[C@@H](NC(=O)[C@H](Cc1ccccc1)NC(=O)[C@@H](Cc1c[nH]c2ccccc12)NC(=O)[C@@H](Cc1csc2ccccc12)NC(=O)[C@@]12CNC[C@@H]1C2)C(N)=O` [Compound 60] (X7-[dBta][dW]F[dK]-NH2), 22.4 nM.
To `CCCC[C@@H](N)C(=O)N[C@H](Cc1csc2ccccc12)C(=O)N[C@H](Cc1c[nH]c2ccccc12)C(=O)N[C@@H](Cc1ccccc1)C(=O)NC1(C(N)=O)CCNCC1` [Compound 19] (H-[dNle][dBta][dW]F[Api]-NH2) belongs 42.6 nM.
Regarding `C[C@@H](N)C(=O)N[C@H](Cc1csc2ccccc12)C(=O)N[C@H](Cc1c[nH]c2ccccc12)C(=O)N[C@@H](Cc1ccccc1)C(=O)N[C@H](CCCCN)C(N)=O` [Compound 42] (H-[dA][dBta][dW]F[dK]-NH2), the IC50 is 40.1 nM.
To `N=C(N)NCCC[C@@H](NC(=O)[C@H](Cc1ccccc1)NC(=O)[C@@H](Cc1c[nH]c2ccccc12)NC(=O)[C@@H](Cc1csc2ccccc12)NC(=O)[C@@]12CNC[C@@H]1C2)C(N)=O` [Compound 70] (X7-[dBta][dW]F[dR]-NH2) belongs 39.7 nM; to `NC(=O)NCCC[C@@H](N)C(=O)N[C@H](Cc1csc2ccccc12)C(=O)N[C@H](Cc1c[nH]c2ccccc12)C(=O)N[C@@H](Cc1ccccc1)C(=O)NC1(C(N)=O)CCNCC1` [Compound 1] (H-[dCit][dBta][dW]F[Api]-NH2), 150 nM; to `N=C(N)NCCC[C@@H](NC(=O)[C@H](Cc1ccccc1)NC(=O)[C@@H](Cc1c[nH]c2ccccc12)NC(=O)[C@@H](Cc1csc2ccccc12)NC(=O)[C@H]1CCNC1)C(N)=O` [Compound 66] ({Pyrrolidine3carbonyl(3S)}-[dBta][dW]F[dR]-NH2), 12 nM.
The same measure for `CC(C)(C)[C@H](N)C(=O)N[C@H](Cc1csc2ccccc12)C(=O)N[C@H](Cc1c[nH]c2ccccc12)C(=O)N[C@@H](Cc1ccccc1)C(=O)NC1(C(N)=O)CCNCC1` [Compound 18] (H-[Tle][dBta][dW]F[Api]-NH2): 23.5 nM; for `N=C(N)NCCC[C@@H](NC(=O)[C@H](Cc1ccccc1)NC(=O)[C@@H](Cc1c[nH]c2ccccc12)NC(=O)[C@@H](Cc1csc2ccccc12)NC(=O)C1N[C@@H]2CC[C@H]1C2)C(N)=O` (stereo partly drawn) [Compound 69] (H-[X6][dBta][dW]F[dR]-NH2): 40.2 nM.
The same measure for `N=C(N)NCCC[C@@H](N)C(=O)N[C@H](Cc1csc2ccccc12)C(=O)N[C@H](Cc1c[nH]c2ccccc12)C(=O)N[C@@H](Cc1ccccc1)C(=O)NC1(C(N)=O)CCNCC1` [Compound 9] (H-[dR][dBta][dW]F[Api]-NH2): 101 nM; for `NC(=O)C1(NC(=O)[C@H](Cc2ccccc2)NC(=O)[C@@H](Cc2c[nH]c3ccccc23)NC(=O)[C@@H](Cc2csc3ccccc23)NC(=O)[C@H]2CNCCO2)CCNCC1` [Compound 27] (X4-[dBta][dW]F[Api]-NH2): 32.8 nM.
`NC(=O)[C@H](Cc1ccccc1)NC(=O)[C@@H](Cc1c[nH]c2ccccc12)NC(=O)[C@@H](Cc1csc2ccccc12)NC(=O)C1N[C@@H]2CC[C@H]1C2` (stereo partly drawn) [Compound 79]: the IC50 is 33.1 nM.
Regarding `NCCCC[C@@H](NC(=O)[C@H](Cc1ccccc1)NC(=O)[C@@H](Cc1c[nH]c2ccccc12)NC(=O)[C@@H](Cc1csc2ccccc12)NC(=O)CC12CC3CC(CC(N)(C3)C1)C2)C(N)=O` [Compound 58] (X5-[dBta][dW]F[dK]-NH2), the 50% inhibitory concentration (IC50) was 104 nM.
The same measure for `CC(=O)N[C@H](CCCNC(N)=O)C(=O)N[C@H](Cc1csc2ccccc12)C(=O)N[C@H](Cc1c[nH]c2ccccc12)C(=O)N[C@@H](Cc1ccccc1)C(=O)N[C@H](CCCCN)C(N)=O` [Compound 36] (Ac-[dCit][dBta][dW]F[dK]-NH2): 122 nM.
To `CC(=O)N[C@H](CCCNC(N)=O)C(=O)N[C@H](Cc1csc2ccccc12)C(=O)N[C@H](Cc1c[nH]c2ccccc12)C(=O)N[C@@H](Cc1ccccc1)C(=O)NC1(C(N)=O)CCNCC1` [Compound 6] (Ac-[dCit][dBta][dW]F[Api]-NH2) belongs greater than 1000 nM.
Turning to `CC(=O)N[C@@H](CCCCN)C(=O)N[C@H](Cc1csc2ccccc12)C(=O)N[C@H](Cc1c[nH]c2ccccc12)C(=O)N[C@@H](Cc1ccccc1)C(=O)NC1(C(N)=O)CCNCC1` [Compound 8] (Ac-K[dBta][dW]F[Api]-NH2), the IC50 was greater than 1000 nM.
The same measure for `N=C(N)NCCC[C@@H](NC(=O)[C@H](Cc1ccccc1)NC(=O)[C@@H](Cc1c[nH]c2ccccc12)NC(=O)[C@@H](Cc1csc2ccccc12)NC(=O)[C@H]1CCN1)C(N)=O` [Compound 65] (H-[dAze][dBta][dW]F[dR]-NH2): 34.3 nM.
To `CC(=O)N[C@H](CCCCN)C(=O)N[C@H](Cc1csc2ccccc12)C(=O)N[C@H](Cc1c[nH]c2ccccc12)C(=O)N[C@@H](Cc1ccccc1)C(=O)N[C@H](CCCCN)C(N)=O` [Compound 37] (Ac-[dK][dBta][dW]F[dK]-NH2) belongs 291 nM.
`CC(=O)N[C@@H](CCCCN)C(=O)N[C@H](Cc1csc2ccccc12)C(=O)N[C@H](Cc1c[nH]c2ccccc12)C(=O)N[C@@H](Cc1ccccc1)C(=O)N[C@H](CCCCN)C(N)=O` [Compound 38] (Ac-K[dBta][dW]F[dK]-NH2): the IC50 came out at 400 nM.
As for `NCCCC[C@H](N)C(=O)N[C@H](Cc1csc2ccccc12)C(=O)N[C@H](Cc1c[nH]c2ccccc12)C(=O)N[C@@H](Cc1ccccc1)C(=O)NC1(C(N)=O)CCNCC1` [Compound 5] (H-K[dBta][dW]F[Api]-NH2), the IC50 was greater than 1000 nM.
To `N=C(N)NCCC[C@@H](NC(=O)[C@H](Cc1ccccc1)NC(=O)[C@@H](Cc1c[nH]c2ccccc12)NC(=O)[C@@H](Cc1csc2ccccc12)NC(=O)[C@H]1CNCCO1)C(N)=O` [Compound 67] (X4-[dBta][dW]F[dR]-NH2) belongs 23.3 nM; to `CC(C)[C@@H](N)C(=O)N[C@H](Cc1csc2ccccc12)C(=O)N[C@H](Cc1c[nH]c2ccccc12)C(=O)N[C@@H](Cc1ccccc1)C(=O)N[C@H](CCCCN)C(N)=O` [Compound 43] (H-[dV][dBta][dW]F[dK]-NH2), 22.3 nM.
To `CC(=O)NCCCC[C@@H](N)C(=O)N[C@H](Cc1csc2ccccc12)C(=O)N[C@H](Cc1c[nH]c2ccccc12)C(=O)N[C@@H](Cc1ccccc1)C(=O)N[C@H](CCCCN)C(N)=O` [Compound 40] (H-[dK](Ac)[dBta][dW]F[dK]-NH2) belongs 510 nM.
